Assay results reported in publication PMC12505902, “Inhibitors of trehalose-6-phosphate synthase activity in fungal pathogens compromise thermal tolerance pathways” (mBio, 2025).

What was measured:
[1] = test system: C. neoformans WT H99; experiment: C. neoformans capsule assay (India Ink); format: cell-based; conditions: 0.1, 0.5 and 1 mM 4456dh, 72 hours at 30°C, dose-dependent
Protocol: Fig 5 4456dh treatment results in reduced trehalose accumulation and a decrease in Tps1-dependent virulence factors. Trehalose accumulation measurements for C. albicans (A) and C. neoformans (B) cultured at indicated temperatures in the absence or presence of 0.5 mM 4456dh. Trehalose was measured using a colorimetric glucose assay after treatment of cultures with trehalase. Statistical comparisons were done with a one-way analysis of variance (ANOVA) analysis followed by a post hoc Tukey’s test. Error bars represent SE. (C) C. albicans WT strain SC5314 cells were treated with 0.5 mM, 1.0 mM, and 5 mM 4456dh. Untreated C. albicans WT cells and the C. albicans tps1Δ/tps1Δ deletion strain were included in this experiment as positive and negative controls, respectively. Increasing concentrations of 4456dh negatively affect filamentation in C. albicans in YPD plus 10% fetal bovine serum incubated at 37°C for 2 hours. Representative images from two independent experiments are shown. The scale bars represent 10 microns. (D) Analysis of capsule formation in C. neoformans WT H99 using India Ink counter-staining in cells treated with 0.1 mM, 0.5 mM, and 1 mM 4456dh. […] Cells were harvested, stained in India Ink, and analyzed using differential interference contrast imaging. […]
(§1) 190 (Zeiss). The size of the capsule of > 100 cells per 4456dh treatment was quantified using Image […]

[2] = test system: C. neoformans H99; experiment: Epsilometer test (E-test) with fluconazole strips; format: cell-based; conditions: YPD plates with 4456dh, fluconazole E-test strip, 37°C, 72 h, dose-dependent
Protocol: Inhibitors of Tps1 may work synergistically with known antifungal drugs. In C. glabrata, the trehalose biosynthesis mutant, tps2Δ, is more susceptible to fluconazole at 37°C ([40]). Therefore, we hypothesized that there might be synergy between 4456dh and fluconazole.
169 different concentrations (0.5mM, 1mM, and 5mM) and one was used as untreated control.
170 tps1/ tps1 deletion mutant was used as a negative control for filamentation in these assays. 10 µl
171 of cell suspension was directly used for imaging the filamentation status of the cells using the
172 Zeiss Axio Scope microscope attached to the Axiocam at 40X magnification. The images were
173 processed using Fiji (8) for the final presentation.
174 Epsilometer Test (E-test)
175 C. neoformans wild type (H99) was incubated in a shaking culture of YPD medium for 18 h at
176 30 °C. The culture was diluted to an OD600 0.6, diluted 10-fold in PBS, and 100 µL was spread
177 onto 60 X 15 mm YPD agar plates prepared with different concentrations of 4456dh. After the […]
as §1
247 was measured using a colorimetric glucose assay after treatment of cultures with trehalase. […]
249 Supplemental Figure 11. Quantification of capsule formation in C. neoformans treated with
250 4456dh. Images taken were analyzed with ImageJ. […]
251 were analyzed. […]

Question: Cn1cc(-c2csc(NC(=O)Cc3ccccn3)n2)cn1 [Compound 4456dh] was tested. Which capsule production [1] did it give?
Answer: Its capsule production is “capsule production was affected”.

Question: And the synergy with fluconazole [2]?
Answer: Its synergy with fluconazole is “detected synergy”.
